Usually EC90 stands for the concentration at which the effect reaches the 90% level.

Here are results for 54 compounds from US8697694B2, “Substituted pyridine and pyrimidine derivatives and their use in treating viral infections” (priority 2008, dated 2014).

The structures appear in SMILES notation.

The subject of the first assay is HCV replicon cells. Nature of the assay: Cell-based HCV replicon assay (replicon RNA level by real time PCR, Taqman). Conditions: Hepatitis C virus, 72 h, HCV replicon cells, harvested day 3, replicon RNA by real time PCR; given as number; read-out: EC90 (μM) range. In outline:
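Readout: ΔCT between NS5B replicon RNA and GAPDH by real-time RT-PCR in lysates harvested on day 3, fitted sigmoidally; EC50 at ΔCT=1, EC90 at ΔCT=3.2. Compounds tested at ten 2-fold dilutions from 25 μM to 1 μM start, 10% FBS, 0.5% DMSO.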
(In general: A replicon is a self-replicating genome or part of one, used to study replication in cells.)
Consider `CCOc1cc2cc(-c3c(C)nc(NCC(F)(F)F)nc3N[C@@H]3C[C@H](CO)[C@@H](O)[C@H]3O)oc2c(C)n1` [Example 29], for which the EC90 was found to be 0.1 µM.

With `CCOc1cc2cc(-c3c(C)nc(NCc4c(F)cccc4F)nc3N[C@@H]3C[C@H](CO)[C@@H](O)[C@H]3O)oc2c(C)n1` [Example 50], the EC90 turned out to be 0.05 µM.

On to `COCCNc1nc(C)c(-c2cc3cc(OC(C)C)nc(C)c3o2)c(N[C@@H]2C[C@H](CO)[C@@H](O)[C@H]2O)n1` [Example 37], for which the EC90 was 0.3 µM.

The assay is the same for the next values; noted with them: Hepatitis C virus, 72 h, HCV replicon cells, harvested day 3, replicon RNA by real time PCR; reported as range class; read-out: EC90 (μM) range.
Take `OCCNc1nc(Cl)c(-c2nc3ccccc3s2)c(N[C@@H]2C[C@H](CO)[C@@H](O)[C@H]2O)n1` [Example 212]: the EC90 is under 0.5 µM.

Consider `CCOc1cc2cc(-c3c(Cl)nc(NCC(F)(F)F)nc3N[C@@H]3C[C@H](CO)[C@@H](O)[C@H]3O)oc2c(C)n1` [Example 20], for which the EC90 was under 0.5 µM.

For `Cc1ccc2oc(-c3c(Cl)nc(N)nc3N[C@@H]3C[C@H](CO)[C@@H](O)[C@H]3O)cc2n1` [Example 16], the EC90 was in the range of 0.5 to 5 µM.

In the case of `Cc1nc(NCCC(F)(F)F)nc(N[C@@H]2C[C@H](CO)[C@@H](O)[C@H]2O)c1-c1nc2ccccc2s1` [Example 218], the EC90 was under 0.5 µM.

Take `CC1(C)O[C@@H]2[C@@H](CO)C[C@@H](Nc3nc(N)nc(Cl)c3-c3nc4ccc(OCc5ccccc5)cc4s3)[C@@H]2O1` [Example 198]: the concentration for an effect of 90% (EC90) was over 5 µM.

In the case of `Nc1nc(Cl)c(-c2cccc(N3CCOCC3)n2)c(N[C@@H]2C[C@H](CO)[C@@H](O)[C@H]2O)n1` [Example 158], the EC90 is over 5 µM.

With `Nc1nc(Cl)c(-c2cc3cncnc3o2)c(N[C@@H]2C[C@H](CO)[C@@H](O)[C@H]2O)n1` [Example 402], the EC90 is over 5 µM.

As to `Cc1nc(NCCF)nc(N[C@@H]2C[C@H](CO)[C@@H](O)[C@H]2O)c1-c1nc2ccccc2s1` [Example 216], the EC90 was 0.5 to 5 µM.

As to `Cc1ccc2nc(-c3c(Cl)nc(N)nc3N[C@@H]3C[C@H](CO)[C@@H](O)[C@H]3O)oc2c1` [Example 191], the 90% effect concentration (EC90) lay within 0.5 to 5 µM.

In the case of `Nc1nc(Cl)c(-c2ccccc2)c(N[C@@H]2C[C@H](CO)[C@@H](O)[C@H]2O)n1` [Example 5], the 90% effect concentration (EC90) is over 5 µM.

`CC1(C)O[C@@H]2[C@@H](CO)C[C@@H](Nc3nc(N)nc(-c4nc5c(F)cc(F)cc5s4)c3-c3nc4c(F)cc(F)cc4s3)[C@@H]2O1` [Example 185]: the 90% effect concentration (EC90) is over 5 µM.

Turning to `CC1(C)O[C@@H]2[C@@H](CO)C[C@@H](Nc3nc(N)nc(Cl)c3-c3nc4c(F)cc(F)cc4s3)[C@@H]2O1` [Example 186], the EC90 is 0.5 to 5 µM.

Still in this assay, the particulars now being: Hepatitis C virus, 72 h, HCV replicon cells, harvested on day 3, replicon RNA by real time PCR; calculated EC90 reported as range class; read-out: EC90 (μM) range.
Regarding `Cc1cc2cc(-c3c(Cl)nc(NCC4CCOCC4)nc3N[C@@H]3C[C@H](CO)[C@@H](O)[C@H]3O)oc2c(C)n1` [Example 458], the concentration for an effect of 90% (EC90) was under 0.5 µM.

Consider `CCCCCNc1nc(C)c(-c2cc3cc(C)ncc3o2)c(N[C@@H]2C[C@H](CO)[C@@H](O)[C@H]2O)n1` [Example 453], for which the EC90 was under 0.5 µM.

Turning to `CCCCCNc1nc(C)c(-c2cc3cc(CC)ncc3o2)c(N[C@@H]2C[C@H](CO)[C@@H](O)[C@H]2O)n1` [Example 514], the EC90 was under 0.5 µM.

Turning to `CCc1cc2cc(-c3c(Cl)nc(NCCOC)nc3N[C@@H]3C[C@H](CO)[C@@H](O)[C@H]3O)oc2cn1` [Example 501], the EC90 was under 0.5 µM.

Regarding `Cc1nc(NCc2ccc(C(F)(F)F)cc2)nc(N[C@@H]2C[C@H](CO)[C@@H](O)[C@H]2O)c1-c1nc2ccccc2s1` [Example 242], the EC90 is under 0.5 µM.

In the case of `Cc1nc(NCc2cccnc2)nc(N[C@@H]2C[C@H](CO)[C@@H](O)[C@H]2O)c1-c1nc2ccccc2s1` [Example 466], the concentration for an effect of 90% (EC90) is under 0.5 µM.

With `Cc1nc(NCc2ccco2)nc(N[C@@H]2C[C@H](CO)[C@@H](O)[C@H]2O)c1-c1nc2ccccc2s1` [Example 470], the EC90 was under 0.5 µM.

`CCCCCNc1nc(C)c(-c2nc3ccccc3s2)c(N[C@@H]2CC[C@H]3OC4(CCCCC4)O[C@@H]23)n1` [Example 332]: the EC90 is over 5 µM.

As for `OC[C@H]1C[C@@H](Nc2nc(NC3CCOCC3)nc(Cl)c2-c2nc3ccccc3s2)[C@H](O)[C@@H]1O` [Example 424], the EC90 is under 0.5 µM.

For the compound `COc1cc(CNc2nc(C)c(-c3nc4ccccc4s3)c(N[C@@H]3C[C@H](CO)[C@@H](O)[C@H]3O)n2)cc(OC)c1` [Example 701], the EC90 was under 0.5 µM.

Turning to `Cc1nc(NC(C)(C)C)nc(N[C@@H]2C[C@H](CO)[C@@H](O)[C@H]2O)c1-c1nc2ccccc2s1` [Example 429], the concentration for an effect of 90% (EC90) is under 0.5 µM.

Regarding `Cc1nc(NCCNC(=O)NC(C)(C)C)nc(N[C@@H]2C[C@H](CO)[C@H]3OC(C)(C)O[C@H]32)c1-c1nc2ccccc2s1` [Example 249], the 90% effect concentration (EC90) is over 5 µM.

Still in this assay, the particulars now being: Hepatitis C virus, 72 h, HCV replicon cells, replicon RNA level by real time PCR (Taqman), day 3; calculated EC90; read-out: EC90 (μM) range.
With `COc1cc(CCNc2nc(C)c(-c3nc4cnccc4s3)c(N[C@@H]3C[C@H](CO)[C@@H](O)[C@H]3O)n2)cc(OC)c1` [Example 2010], the 90% effect concentration (EC90) was under 0.5 µM.

Still in this assay, the particulars now being: Hepatitis C virus, 72 h, HCV replicon cells, replicon RNA level by real time PCR (Taqman), harvested on day 3; calculated EC90 reported as range class; read-out: EC90 (μM) range.
For the compound `Cc1nc(Nc2cccc(F)c2)nc(N[C@@H]2C[C@H](CO)[C@@H](O)[C@H]2O)c1-c1nc2cnccc2s1` [Example 1056], the EC90 is under 0.5 µM.

Regarding `Cc1nc(Nc2cc[nH]n2)nc(N[C@@H]2C[C@H](CO)[C@@H](O)[C@H]2O)c1-c1nc2ccccc2s1` [Example 1222], the EC90 was over 5 µM.

As to `Cc1ccc(C2(Nc3nc(C)c(-c4nc5cnccc5s4)c(N[C@@H]4C[C@H](CO)[C@@H](O)[C@H]4O)n3)CC2)cc1` [Example 1315], the EC90 was 0.5 to 5 µM.

Turning to `COc1cccc(Nc2nc(C)c(-c3nc4ccccc4s3)c(N[C@@H]3C[C@H](CO)[C@H]4OC(C)(C)O[C@H]43)n2)c1OC` [Example 1128], the EC90 was over 5 µM.

As to `Cc1nc(NCC(F)(F)F)nc(N[C@@H]2C[C@H](CN3CCCC3)[C@@H](O)[C@H]2O)c1-c1nc2ccccc2s1` [Example 1017], the EC90 is 0.5 to 5 µM.

For `Cc1nc(N[C@H](C)c2ccccc2)nc(N[C@@H]2C[C@H](CO)[C@@H](O)[C@H]2O)c1-c1nc2cnccc2s1` [Example 543], the EC90 was under 0.5 µM.

Turning to `Cc1nc(NCC2CC2)nc(N[C@@H]2C[C@H](CO)[C@@H](S(C)(=O)=O)[C@H]2O)c1-c1nc2ccccc2s1` [Example 1136], the concentration for an effect of 90% (EC90) was 0.5 to 5 µM.

In the case of `Cc1nc(NCC2CC2)nc(N[C@@H]2C[C@H](CO)[C@@H](O)[C@@H]2O)c1-c1nc2ccccc2s1` [Example 1252], the EC90 was over 5 µM.

Turning to `Cc1nc(Nc2nccs2)nc(N[C@@H]2C[C@H](CO)[C@@H](O)[C@H]2O)c1-c1nc2ccccc2s1` [Example 1013], the EC90 is 0.5 to 5 µM.

`Cc1nc(OCC(F)(F)F)nc(N[C@@H]2C[C@H](CO)[C@@H](O)[C@H]2O)c1-c1nc2ccccc2s1` [Example 1057]: the concentration for an effect of 90% (EC90) was over 5 µM.

Regarding `Cc1nc(NCc2cccc(S(C)(=O)=O)c2)nc(N[C@@H]2C[C@H](CO)[C@@H](O)[C@H]2O)c1-c1nc2ccccc2s1` [Example 1225], the concentration for an effect of 90% (EC90) was 0.5 to 5 µM.

Consider `CCOCCCCNc1nc(C)c(-c2nc3ccccc3s2)c(N[C@@H]2C[C@H](CO)[C@@H](O)[C@H]2O)n1` [Example 1052], for which the EC90 was under 0.5 µM.

Turning to `Cc1nc(NCc2cccc(CN(C)C)c2)nc(N[C@@H]2C[C@H](CO)[C@@H](O)[C@H]2O)c1-c1nc2ccccc2s1` [Example 1119], the concentration for an effect of 90% (EC90) was 0.5 to 5 µM.

The assay is the same for the next values; noted with them: Hepatitis C virus, 72 h, HCV replicon cells, replicon RNA level by real time PCR, harvested day 3; read-out: EC90 (μM) range.
As for `Cc1ccc(CCNc2nc(C)c(-c3nc4cnccc4s3)c(N[C@@H]3C[C@H](CO)[C@@H](O)[C@H]3O)n2)s1` [Example 1813], the EC90 is under 0.5 µM.

Take `Cc1nc(N[C@H](C)C(F)(F)F)nc(N[C@@H]2C[C@H](CO)[C@@H](O)[C@H]2O)c1-c1nc2ccccc2s1` [Example 1623]: the EC90 fell in the range of 0.5 to 5 µM.

Take `CCN(C[C@@H]1C[C@@H](Nc2nc(NCC(F)(F)F)nc(C)c2-c2nc3ccccc3s2)[C@H](O)[C@@H]1O)S(C)(=O)=O` [Example 1393]: the 90% effect concentration (EC90) was in the range of 0.5 to 5 µM.

As for `Cc1nc(N[C@H](C)C2CC2)nc(N[C@@H]2CC[C@@H](O)[C@@]2(C)O)c1-c1nc2cnccc2s1` [Example 1811], the EC90 is under 0.5 µM.

Turning to `CCCc1nccc2sc(-c3c(C)nc(N[C@H](C)C4CC4)nc3N[C@@H]3C[C@H](CNS(C)(=O)=O)[C@@H](O)[C@H]3O)nc12` [Example 1387], the EC90 was under 0.5 µM.

Regarding `Cc1cc(NCC2CC2)nc(N[C@@H]2C[C@H](CO)[C@@H](O)[C@H]2O)c1-c1nc2ccccc2s1` [Example 1616], the EC90 was over 5 µM.

In the case of `Cc1nc(N[C@H](C)c2ccc(OC(F)(F)F)cc2)nc(N[C@@H]2C[C@@H](C(C)O)[C@@H](O)[C@H]2O)c1-c1nc2cnccc2s1` (stereo partly drawn) [Example 1652], the 90% effect concentration (EC90) was under 0.5 µM.

As for `Cc1nc(NCC(F)(F)F)nc(N[C@@H]2C[C@H](CN(C)S(C)(=O)=O)[C@@H](O)[C@H]2O)c1-c1nc2ccccc2s1` [Example 1379], the EC90 is under 0.5 µM.

For `Cc1nc(NCC(F)(F)F)nc(N[C@H]2CN[C@@H](CO)C2)c1-c1nc2ccccc2s1` [Example 1349], the EC90 is over 5 µM.

As to `Cc1nc(NCC(O)c2ccccc2)nc(N[C@@H]2C[C@H](CO)[C@@H](O)[C@H]2O)c1-c1nc2cnccc2s1` (stereo partly drawn) [Example 1918], the EC90 was under 0.5 µM.

Take `Cc1nc(NCC(F)(F)F)nc(N[C@@H]2C[C@H](CS(C)(=O)=O)[C@@H](O)[C@H]2O)c1-c1nc2cnccc2s1` [Example 1367]: the EC90 is under 0.5 µM.

As to `CCN(C[C@H]1C[C@@H](Nc2nc(NCC(F)(F)F)nc(C)c2-c2nc3ccccc3s2)[C@H](O)[C@@H]1O)S(C)(=O)=O` [Example 1392], the 90% effect concentration (EC90) is under 0.5 µM.

In the case of `Cc1nc(NCc2c(F)cccc2F)nc(N[C@@H]2CC[C@@H](O)[C@@]2(C)O)c1-c1nc2c(C)nccc2s1` [Example 1814], the EC90 is under 0.5 µM.
